Results on 17 molecules are retold here after ChEMBL document CHEMBL1152314, “Antineoplastic agents. 565. Synthesis of combretastatin D-2 phosphate and dihydro-combretastatin D-2” (J Nat Prod, 2009).

In brackets after ≈: the same amount, converted by molar mass. Activity calls are given as the source filed them. No cut-off for these calls is given here.

A short description of series [1]: Cytotoxicity against human breast cancer cells. The following applies: Cancer cell lines. It counts as functional.
Series [2] can be described thus: Cytotoxicity against human prostate cancer cells. The following applies: Cancer cell lines. It counts as functional.
Series [3] can be described thus: Cytotoxicity against human colon cancer cells. It counts as functional. The following applies: Cancer cell lines.
Series [4] in a line: Cytotoxicity against human lung cancer cells. It counts as functional. The following applies: Cancer cell lines.
The next series relates to P388. The experiment in a line: Cytotoxicity against mouse P388 cells. It counts as functional. The following applies: read-out: ED50 (the source's name).
Series [5] is described as follows: Cytotoxicity against human pancreatic cancer cells. It counts as functional. The following applies: Cancer cell lines.
Series [6] in a line: Cytotoxicity against human brain cancer cells. The following applies: Cancer cell lines. It counts as functional.
Series [7] is described as follows: Solubility in water at 25 degC. It counts as physicochemical.
Series [8] can be described thus: Inhibition of tubulin polymerization.
The next series concerns Staphylococcus aureus. The series is described as follows: Antimicrobial activity against Staphylococcus aureus ATCC 29213. It counts as functional, organism-based.
Series [9] relates to Stenotrophomonas maltophilia. The experiment in a line: Antimicrobial activity against Stenotrophomonas maltophilia ATCC 13637. It counts as functional, organism-based.
Another series relates to Escherichia coli. The series is described as follows: Antimicrobial activity against Escherichia coli ATCC 25922. It counts as functional, organism-based.
In a further series the test system is Micrococcus luteus. The series is described as follows: Antimicrobial activity against Micrococcus luteus Presque Isle 456. It counts as functional, organism-based.
Another series concerns Cryptococcus neoformans. The series is described as follows: Antimicrobial activity against Cryptococcus neoformans ATCC 90112. It counts as functional, organism-based.
The next series has as its system Enterococcus faecalis. The experiment in a line: Antimicrobial activity against Enterococcus faecalis ATCC 29212. It counts as functional, organism-based.
In a further series the test system is Neisseria gonorrhoeae. The experiment in a line: Antimicrobial activity against Neisseria gonorrhoeae ATCC 49226. It counts as functional, organism-based.
The test system of a further series is Candida albicans. The series is described as follows: Antimicrobial activity against Candida albicans ATCC 90028. It counts as functional, organism-based.
Another series concerns Enterobacter cloacae. The experiment in a line: Antimicrobial activity against Enterobacter cloacae ATCC 13047. It counts as functional, organism-based.
Another series deals with Streptococcus pneumoniae. The series is described as follows: Antimicrobial activity against Streptococcus pneumoniae ATCC 6303. It counts as functional, organism-based.

For `C1COCCN1.C1COCCN1.O=C1CCc2ccc(OP(=O)(O)O)c(c2)Oc2ccc(cc2)/C=C\CO1`, the concentration for 50% growth inhibition (GI50) in series [1], in series [2], in series [3], in [4], in [5] and in [6] was more than 10 µg/mL each time. Besides, the EC50 in the series with P388 was 86.2 µg/mL. In addition, in series [7] (water, read-out: solubility), the solubility turned out to be 5 mg/mL.
Take `O=C1CCc2ccc(OCc3ccccc3)c(c2)Oc2ccc(cc2)/C=C\CO1`: the EC50 in the series with P388 was more than 100 µg/mL.
For the molecule `O=C1CCc2ccc(O)c(c2)Oc2ccc(cc2)[C@H]2O[C@@H]2CO1`, the IC50 in [8] is more than 40 µM. In the series on P388, the EC50 was 3.3 µg/mL (≈ 10.6 µM).
Take `COc1ccc(CCC(=O)OC/C=C\c2ccc(Br)cc2)cc1O`: the GI50 in [1] is 16.4 µg/mL (≈ 41.9 µM); in series [2], 8.9 µg/mL (≈ 22.7 µM); in series [3], 17.1 µg/mL (≈ 43.7 µM); in series [4] it was 16.5 µg/mL (≈ 42.2 µM); in series [5] it was 16.4 µg/mL (≈ 41.9 µM); in series [6], 18.5 µg/mL (≈ 47.3 µM). Also, the EC50 with P388 was more than 100 µg/mL.
On to `O=C1CCc2ccc(OP(=O)([O-])[O-])c(c2)Oc2ccc(cc2)/C=C\CO1.[Na+].[Na+]`, for which the GI50 in series [1] is 30.5 µg/mL; in [2] it was 18.2 µg/mL; in series [3], 25.5 µg/mL; in [4] it was 13.3 µg/mL; in series [5], 22.1 µg/mL; in series [6], 36.3 µg/mL. The EC50 with P388 was determined as 23.9 µg/mL. Further, the solubility in [7] (buffer) was more than 70 mg/mL.
Take `COc1ccc2cc1Oc1ccc(cc1)/C=C\COC(=O)CC2`: the GI50 was 0.83 µg/mL (≈ 2.67 µM) in series [1]; 5.6 µg/mL (≈ 18 µM) in series [2]; 9.4 µg/mL (≈ 30.3 µM) in [3]; 6.6 µg/mL (≈ 21.3 µM) in [4]; 7.3 µg/mL (≈ 23.5 µM) in series [5]; 2.2 µg/mL (≈ 7.09 µM) in series [6]. The EC50 in the series with P388 stood at 8.1 µg/mL (≈ 26.1 µM).
Turning to `O=C1CCc2ccc(OP(=O)([O-])[O-])c(c2)Oc2ccc(cc2)/C=C\CO1.[Li+].[Li+]`, the GI50 came out at 26.1 µg/mL in [1]; 4.3 µg/mL in [2]; 27.5 µg/mL in series [3]; 14.4 µg/mL in series [4]; 35.9 µg/mL in series [5]; 37.9 µg/mL in [6]. Further, the EC50 in the series on P388 stood at 27.1 µg/mL. Moreover, the solubility in series [7] (buffer) was found to be 20 mg/mL.
Regarding `COc1ccc(/C=C\c2cc(OC)c(OC)c(OC)c2)cc1O` [COMBRETASTATIN A4], the EC50 in the series with P388 amounted to 0.0034 µg/mL (≈ 0.0107 µM).
In the case of `COc1ccc(CCC(=O)OCCCc2ccc(Br)cc2)cc1O`, in the series with P388, the EC50 is more than 100 µg/mL.
Regarding `O=C1CCc2ccc(OCc3ccccc3)c(c2)Oc2ccc(cc2)CCCO1`, the EC50 in the series with P388 was more than 100 µg/mL.
In series [8], `COc1ccc(C[C@@H](O)c2cc(OC)c(OC)c(OC)c2)cc1O` [COMBRETASTATIN] registered an IC50 of 5 µM. Besides, the EC50 with P388 came to 0.011 µg/mL (≈ 0.0329 µM).
`O=C(CCc1ccc(OCc2ccccc2)c(O)c1)OC/C=C\c1ccc(F)c([N+](=O)[O-])c1`: the EC50 in the series with P388 was more than 100 µg/mL.
As to `O=C1CCc2ccc(OP(=O)([O-])[O-])c(c2)Oc2ccc(cc2)/C=C\CO1.[K+].[K+]`, the 50% growth inhibitory concentration (GI50) in series [1] was 34.5 µg/mL; in [2], 14.4 µg/mL; in [3], 40.6 µg/mL; in series [4] it was 27.8 µg/mL; in series [5] it was 40.1 µg/mL; in series [6] it was 45.2 µg/mL. For the same molecule, in series [7] (buffer), the solubility is more than 50 mg/mL.
As for `O=C1CCc2ccc(O)c(c2)Oc2ccc(cc2)/C=C\CO1`, the concentration for 50% growth inhibition (GI50) was 6.6 µg/mL (≈ 22.3 µM) in series [1]; 2.7 µg/mL (≈ 9.11 µM) in series [2]; more than 10 µg/mL in series [3]; 6 µg/mL (≈ 20.2 µM) in [4]; 4.8 µg/mL (≈ 16.2 µM) in [5]; 4.7 µg/mL (≈ 15.9 µM) in series [6]. In addition, the outcome (in the series on Staphylococcus aureus; in series [9]; in the series with Escherichia coli; in the series with Micrococcus luteus; in the series with Cryptococcus neoformans; with Enterococcus faecalis) was inactive. In addition, the outcome in the series on Neisseria gonorrhoeae, with Candida albicans, in the series on Enterobacter cloacae and with Streptococcus pneumoniae was inactive. The half-inhibitory concentration (IC50) in series [8] is more than 40 µM. Further, in the series with P388, the EC50 was 5.2 µg/mL (≈ 17.5 µM). Moreover, the solubility in series [7] (buffer) is 0.5 mg/mL (≈ 1690 µM).
Turning to `O=C(CCc1ccc(OCc2ccccc2)c(O)c1)OC/C=C\c1ccc(Br)cc1`, the EC50 in the series with P388 is more than 100 µg/mL.
`O=C1CCc2ccc(O)c(c2)Oc2ccc(cc2)CCCO1` [CORNICULATOLIDE A]: the outcome (in the series on Staphylococcus aureus; in series [9]; in the series with Escherichia coli; with Micrococcus luteus; in the series on Cryptococcus neoformans; in the series on Enterococcus faecalis) was inactive. The result in the series with Neisseria gonorrhoeae, in the series on Candida albicans, in the series with Enterobacter cloacae and in the series with Streptococcus pneumoniae was inactive. Besides, the EC50 in the series on P388 was more than 100 µg/mL.
Regarding `COc1ccc(CCC(=O)OC/C=C\c2ccc(F)c([N+](=O)[O-])c2)cc1O`, the EC50 in the series with P388 came out at 27 µg/mL (≈ 71.9 µM).
